According to US20100160342A1, “Compositions of Topical Ocular Solutions to Deliver Effective Concentrations of Active Agent to the Posterior Segment of the Eye” (ALCON RESEARCH, LTD., priority 2008, published 2010):

What was measured:
[1] = From the text: Another preferred criterion for improving the bioavailability of the active agent is establishing a pH range for the composition which provides the highest solubility. It will be apparent to the skilled artisan that the pH of the composition will depend upon the concentration and the salt form of the active agent in the composition.
[2] = Ocular comfort / stinging upon topical administration to the eye
From the text: It is well known that acidic solutions alone cause ocular stinging.

[3] = in vivo

Compound	solubility compared with the free base [1]	solubility versus theoretical solubility predicted by the Handerson-Hasselbach relationship [1]	ocular stinging / comfort ([2]; in vivo)	ocular stinging / comfort ([2]; ophthalmic solution administered topically to the eye)	aqueous humor (AqH) drug level, 0.5% HPMC versus 0% HPMC [3] [fold]	retina drug level, 0.5% HPMC versus 0% HPMC [3] [% HPMC ˜0% HPMC]
tandospirone citrate [tandospirone citrate salt]	dramatically less than that of the free base	decreased substantially	stings	–	–	–
O=C1[C@@H]2[C@H]3CC[C@H](C3)[C@@H]2C(=O)N1CCCCN1CCN(c2ncccn2)CC1 [Tandospirone, tandospirone]	–	does not exhibit this solubility dip	–	more comfortable	~3	0.5
